Earlier results as cited in patent US8962847B2, “Multicomponent crystals made of ([2-amino-6-(4-fluoro-benzylamino)-pyridin-3-yl]-carbamic acid ethyl ester and an arylpropionic acid” (TEVA GmbH, priority 2010, dated 2015).
Structures can show the parent of a compound that is named as a salt. Where two headings read alike, the source gives them in different places.

Tests used:
[1] = system: pain, fever, inflammation; settings: in vivo
[2] = system: antinociceptive (pain perception inhibiting) activity; settings: mice, flupirtine maleate 15 mg per kg with various dosages of NSAIDS
[3] = system: antinociceptive (pain perception inhibiting) activity; settings: rat, flupirtine maleate 35 mg per kg with various dosages of NSAIDS

SMILES | beginning of action compared with the racemic mixture of ibuprofen [1] | effect on the antinociceptive activity of paracetamol, acetyl salicylic acid, and diclofenac [2] | effect on the antinociceptive activity of paracetamol, acetyl salicylic acid, and diclofenac [3]
CC(C)Cc1ccc([C@H](C)C(=O)O)cc1 [dexibuprofen, (+)-(2S)-2-[4-(2-methylpropyl)-phenyl]propanoic acid] | somewhat faster | – | –
CCOC(=O)Nc1ccc(NCc2ccc(F)cc2)nc1N [flupirtine maleate] | – | enhances | enhances
